Assay results from patent publication US4751302A, “Indazole derivatives” (priority 1982, dated 1988).

Key:
[1] = tested on: Carrageenin edema in rat's paw; assay: Carrageenin Edema Test in Rat's Paw (anti-inflammatory activity, Table 1); assay type: in vivo; settings: 100 mg/kg oral, hydrochloride, rat
Description: An anti-inflammatory activity was measured by orally administering 100 mg/kg of a hydrochloride of the indazole derivative of this invention as set forth in Table 1 to an animal in accordance with the standard method of Carrageenin Edema Test in Rat's Paw described in C. A. Winter et al., Proc. Soc. Exp. Biol. Med., 111, 544 (1962).

in vivo = settings: mouse, ip, intraperitoneal, hydrochloride, male ddy mice

SMILES	inhibition in vivo at 100 mg/kg [1]	LD50 (in vivo)
CCN(CC)CCCNc1n[nH]c2cc(O)ccc12 [(69), 3-(3-Diethylaminopropylamino)-6-hydroxyindazole]	51%	151 mg/kg
CC1CCCC(C)N1CCCn1nc(N)c2cc(Cl)ccc21 (stereo not shown) [(16), 1-[3-(2,6-Dimethylpiperidino)propyl]-3-amino-5-chloroindazole]	33%	214 mg/kg
CC(C)CC(CCn1nc(N)c2cc(O)ccc21)N1CCCCC1 (stereo not shown) [(36), 1-(3-Piperidino-5-methylhexyl)-3-amino-5-hydroxyindazole]	32%	251 mg/kg
CCN(CC)CCCNc1n[nH]c2ccc(I)cc12 [(71), 3-(3-Diethylaminopropylamino)-5-iodoindazole]	56%	256 mg/kg
CCN(CC)C(CCn1nc(N)c2cc(O)ccc21)CC(C)C (stereo not shown) [(32), 1-(3-Diethylamino-5-methylhexyl)-3-amino-5-hydroxyindazole]	47%	251 mg/kg
CCN(CC)CCCn1nc(N)c2ccc(O)cc21 [(25), 1-(3-Diethylaminopropyl)-3-amino-6-hydroxyindazole]	52%	301 mg/kg
ClC1CCN(CCCNc2nn(CCCN3CCOCC3)c3ccccc23)CC1 [(157), 1-(3-Morpholinopropyl)-3-[3-(4-chloropiperidino)propylamino]indazole]	29%	251 mg/kg
CCN(CC)CCCNc1nn(CCCN(CC)CC)c2cc(O)ccc12 [(121), 1-(3-Diethylaminopropyl)-3-(3-diethylaminopropylamino)-6-hydroxyindazole]	21%	251 mg/kg
CCN(CC)CCCn1nc(N)c2cccc(I)c21 [(28), 1-(3-Diethylaminopropyl)-3-amino-7-iodoindazole]	54%	103 mg/kg
Nc1n[nH]c2cccc(O)c12 [(161), 3-Amino-4-hydroxyindazole]	41%	211 mg/kg
OC1CCN(CCCNc2n[nH]c3ccc(Cl)cc23)CC1 [(61), 3-[3-(4-Hydroxypiperidino)propylamino]-5-chloroindazole]	46%	210 mg/kg
Oc1ccc2c(c1)c(NCCCN1CCCCC1)nn2CCCN1CCCCC1 [(131), 1-(3-Piperidinopropyl)-3-(3-piperidinopropylamino)-5-hydroxyindazole]	28%	298 mg/kg
CCN(CC)CCCn1nc(N)c2cc(C)ccc21 [(7), 1-(3-Diethylaminopropyl)-3-amino-5-methylindazole]	58%	221 mg/kg
Clc1ccc2[nH]nc(NCCCN3CCCC3)c2c1 [(65), 3-(3-Pyrrolidinopropylamino)-5-chloroindazole]	36%	136 mg/kg
CCN(CC)C(CCNc1nn(CCC(C)N(C)C)c2ccc(Cl)cc12)CC(C)C (stereo not shown) [(111), 1-(3-Dimethylaminobutyl)-3-(3-diethylamino-5-methylhexylamino)-5-chloroindazole]	22%	314 mg/kg
CC1CCCC(C)N1CCCn1nc(N)c2cc(O)ccc21 (stereo not shown) [(38), 1-[3-(2,6-Dimethylpiperidino)propyl]-3-amino-5-hydroxyindazole]	31%	278 mg/kg
Clc1ccc2[nH]nc(NCCCN3CCCCC3)c2c1 [(55), 3-(3-Piperidinopropylamino)-5-chloroindazole]	47%	133 mg/kg
CCN(CC)CCCNc1nn(CCCN(CC)CC)c2cc(Cl)ccc12 [(91), 1-(3-Diethylaminopropyl)-3-(6-diethylaminopropylamino)-6-chloroindazole]	22%	251 mg/kg
Oc1ccc2[nH]nc(NCCCN3CCCCC3)c2c1 [(77), 3-(3-Piperidinopropylamino)-5-hydroxyindazole]	51%	251 mg/kg
CN1CCN(CCCn2nc(N)c3cc(O)ccc32)CC1 [(42), 1-[3-(4-Methylpiperazino)propyl]-3-amino-5-hydroxyindazole]	24%	341 mg/kg
CC(CCn1nc(N)c2cc(Cl)ccc21)N(C)C (stereo not shown) [(9), 1-(3-Dimethylaminobutyl)-3-amino-5-chloroindazole]	37%	113 mg/kg
Oc1ccc2[nH]nc(NCCCN3CCCC3)c2c1 [(87), 3-(3-Pyrrolidinopropylamino)-5-hydroxyindazole]	38%	238 mg/kg
CC1CCCCN1CCCNc1n[nH]c2ccc(Cl)cc12 (stereo not shown) [(59), 3-[3-(2-Methylpiperidino)propylamino]-5-chloroindazole]	63%	210 mg/kg
Clc1ccc2[nH]nc(NCCCN3CCCCCC3)c2c1 [(63), 3-(3-Homopiperidinopropylamino)-5-chloroindazole]	57%	331 mg/kg

SMILES	inhibition in vivo at 100 mg/kg [1]	LD50 (in vivo)
CCN(CC)C(CCNc1n[nH]c2ccc(O)cc12)CC(C)C (stereo not shown) [(76), 3-(3-Diethylamino-5-methylhexylamino)-5-hydroxyindazole]	46%	146 mg/kg
CCN(CC)CCCNc1n[nH]c2cc(Cl)ccc12 [(47), 3-(3-Diethylaminopropylamino)-6-chloroindazole]	58%	278 mg/kg
CC(CCn1nc(NCCCN2CCCCC2)c2cc(Cl)ccc21)N(C)C (stereo not shown) [(109), 1-(3-Dimethylaminobutyl)-3-(3-piperidinopropylamino)-5-chloroindazole]	29%	387 mg/kg
CCN(CC)CCCn1nc(NCCC(C)N2CCCCC2)c2cc(Cl)ccc21 (stereo not shown) [(99), 1-(3-Diethylaminopropyl)-3-(3-piperidinobutylamino)-5-chloroindazole]	28%	295 mg/kg
CCN(CC)C(CCn1nc(N)c2cc(Cl)ccc21)CC(C)C (stereo not shown) [(10), 1-(3-Diethylamino-5-methylhexyl)-3-amino-5-chloroindazole]	49%	239 mg/kg
CCN(CC)CCCNc1nn(CCCN(CC)CC)c2c(N)cc(N)cc12 [(125), 1-(3-Diethylaminopropyl)-3-(3-diethylaminopropylamino)-5,7-diaminoindazole]	28%	320 mg/kg
CCN(CC)CCCNc1nn(CCCN(CC)CC)c2ccc(I)cc12 [(123), 1-(3-Diethylaminopropyl)-3-(3-diethylaminopropylamino)-5-iodoindazole]	27%	291 mg/kg
Oc1ccc2[nH]nc(NCCCN3CCC(O)CC3)c2c1 [(83), 3-[3-(4-Hydroxypiperidino)propylamino]-5-hydroxyindazole]	34%	134 mg/kg
Clc1ccc2c(c1)c(NCCCN1CCCCC1)nn2CCCN1CCCCC1 [(101), 1-(3-Piperidinopropyl)-3-(3-piperidinopropylamino)-5-chloroindazole]	29%	211 mg/kg
CCN(CC)CCCNc1nn(CCCN2CCCCC2)c2ccc(O)cc12 [(130), 1-(3-Piperidinopropyl)-3-(3-diethylaminopropylamino)-5-hydroxyindazole]	29%	211 mg/kg
CC1CCCCN1CCCn1nc(N)c2cc(Cl)ccc21 (stereo not shown) [(15), 1-[3-(2-Methylpiperidino)propyl]-3-amino-5-chloroindazole]	50%	250 mg/kg
Nc1n[nH]c2cc(O)ccc12 [(163), 3-Amino-6-hydroxyindazole]	43%	252 mg/kg
CCN(CC)CCCNc1n[nH]c2c(Cl)cccc12 [(48), 3-(3-Diethylaminopropylamino)-7-chloroindazole]	57%	291 mg/kg
Nc1nn(CCCN2CCCCC2)c2ccc(Cl)cc12 [(11), 1-(3-Piperidinopropyl)-3-amino-5-chloroindazole]	54%	211 mg/kg
CCN(CC)CCCNc1nn(CCCN(CC)CC)c2ccc(OC)cc12 [(94), 1-(3-Diethylaminopropyl)-3-(3-diethylaminopropylamino)-5-methoxyindazole]	30%	301 mg/kg
CC(CCNc1n[nH]c2ccc(O)cc12)N1CCCCC1 (stereo not shown) [(79), 3-(3-Piperidinobutylamino)-5-hydroxyindazole]	46%	146 mg/kg
CC(C)CC(CCn1nc(N)c2cc(Cl)ccc21)N1CCCCC1 (stereo not shown) [(14), 1-(3-Piperidino-5-methylhexyl)-3-amino-5-chloroindazole]	34%	301 mg/kg
CCN(CC)CCCn1nc(N)c2c(Cl)cccc21 [(1), 1-(3-Diethylaminopropyl)-3-amino-4-chloroindazole]	58%	171 mg/kg
Oc1ccc2c(c1)c(NCCCCCCN1CCCCC1)nn2CCCN1CCCCC1 [(132), 1-(3-Piperidinopropyl)-3-(6-piperidinohexylamino)-5-hydroxyindazole]	21%	310 mg/kg
CCN(CC)CCCn1nc(N)c2cc(Cl)ccc21 [(2), 1-(3-Diethylaminopropyl)-3-amino-5-chloroindazole]	55%	192 mg/kg
CCN(CC)CCCn1nc(N)c2c(O)cccc21 [(23), 1-(3-Diethylaminopropyl)-3-amino-4-hydroxyindazole]	56%	179 mg/kg
CCCCN(CCCC)CCCn1nc(N)c2cc(O)ccc21 [(30), 1-(3-Di-n-butylaminopropyl)-3-amino-5-hydroxyindazole]	54%	255 mg/kg
CN1CCN(CCCNc2n[nH]c3ccc(O)cc23)CC1 [(86), 3-[3-(4-Methylpiperadino)propylamino]-5-hydroxyindazole]	23%	123 mg/kg
